Data reported in US20240009105A1, “TETRAPEPTIDE AND COMPOSITIONS COMPRISING TETRAPEPTIDES” (THE BOOTS COMPANY PLC, priority 2020, published 2024).
Marks after values point to notes of the source that are not given here.

Tested on: Fibrillin 1
Test: Fibrillin 1 expression in primary human dermal fibroblasts by immunofluorescence
Type: cell-based
Conditions: HDF cells, 10 ppm peptide, cultured 5 days, immunofluorescence fibre density
Method: The synergistic activity of the tetrapeptides of the present invention were assessed to determine the expression of dermal extracellular protein Fibrillin 1 using immunofluorescence.
Primary Human dermal fibroblast (HDFs) cells were purchased from Promo Cell and came from a donor. Cells were grown in wells of 96-well black walled, clear bottomed, plates (as purchased from Pierce, Thermo Fisher). Cells were cultured in Human Dermal Fibroblast media (PromoCell) supplemented with Basic Fibroblast Growth Factor (recombinant human), 1 ng/ml and Insulin 5 μg/mL Cells were cultured for 5 days in the presence of the tetrapeptides combination of the present invention, changing media and peptides every 48 hours, followed by immunofluorescence assessment. At the time of treatment cells were at passage 3-4. After 5 days the media was discarded, and cells fixed with methanol. […]
The antibody binding to Fibrillin 1 fibres was visualised using a Nikon Eclipse 100 microscope fluorescence setting using an excitation lens for fluorescein isothiocyanate (FITC). […] Image-J software was used to quantify the Fibrillin 1 fibre abundance and coverage in each image using a threshold of 235 measuring the fibre density.
Results are expressed as an average percentage increase in fibrillin abundance compared to untreated control.

Substance | Fibrillin 1 (average percentage increase in fibrillin abundance compared to untreated control)
Pal-GPKG-OH | +131%^a
Pal-LSVD-OH | +185%^a
